Experimental data taken from patent US20060116410A1, “4-Aminomethyl benzamidine derivatives” (priority 2004, published 2006).
pKi: −log10 of the molar value. Where a name gives a salt, the structure may show the parent alone.

These molecules were tested against T1, factor VIIa/tissue factor complex (Homo sapiens, UniProt P08709) (assay: Inhibition of amidolytic activity of factor VIIa/tissue factor complex, chromogenic substrate Chromozym-tPA). Details: 26 nM tissue factor, 9 nM soluble factor VIIa, room temperature, pH 7.5.
T1 construct: 9 nM of soluble factor VIIa
Type: biochemical
Experimental: Measurements were carried out by an automated robotic assay on microtitre plates at room temperature. To this end, 100 μl of a solution of 26 nM of tissue factor, 9 nM of soluble factor VIIa and 8 mM of calcium chloride were added to 25 μl of a solution of the inhibitor in a buffer [pH 7.5, 100 mM, comprising 0.14M NaCl, 0.1M N-(2-hydroxyethyl)piperazine-N′-(2-ethanesulphonic acid) (HEPES), 0.5 mg/l of fatty-acid-free BSA (bovine serum albumin) and 0.05% NaN3] in each well of the plate. After an incubation time of 15 minutes the reaction was started by the addition of 50 μl of chromogenic substrate Chromozym-tPA (3.5 mM, MeSO2-D-Phe-Gly-Arg-paranitroamlide) and the hydrolysis of the substrate was followed spectrophotometrically on a kinetic microtitre plate reader over 10 minutes. Using the plot of the inhibition curves, the Ki values were determined according to the method described in Biochem. J. 55, 1953, 170-171.

T1 sequence (P08709 213-466 limits assumed): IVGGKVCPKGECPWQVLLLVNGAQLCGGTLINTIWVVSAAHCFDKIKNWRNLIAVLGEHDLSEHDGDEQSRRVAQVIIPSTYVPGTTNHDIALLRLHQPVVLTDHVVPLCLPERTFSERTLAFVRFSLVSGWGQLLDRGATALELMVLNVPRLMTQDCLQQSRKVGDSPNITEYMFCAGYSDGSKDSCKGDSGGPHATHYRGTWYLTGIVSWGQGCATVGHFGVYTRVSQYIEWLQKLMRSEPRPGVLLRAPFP
T1 sequence (P08709 61-212 limits assumed): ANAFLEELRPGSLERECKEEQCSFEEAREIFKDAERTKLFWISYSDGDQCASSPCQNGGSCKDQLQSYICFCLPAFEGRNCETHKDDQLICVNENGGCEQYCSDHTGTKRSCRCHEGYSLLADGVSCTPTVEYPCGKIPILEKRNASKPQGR
T1 sequence (P13726 33-295 partner): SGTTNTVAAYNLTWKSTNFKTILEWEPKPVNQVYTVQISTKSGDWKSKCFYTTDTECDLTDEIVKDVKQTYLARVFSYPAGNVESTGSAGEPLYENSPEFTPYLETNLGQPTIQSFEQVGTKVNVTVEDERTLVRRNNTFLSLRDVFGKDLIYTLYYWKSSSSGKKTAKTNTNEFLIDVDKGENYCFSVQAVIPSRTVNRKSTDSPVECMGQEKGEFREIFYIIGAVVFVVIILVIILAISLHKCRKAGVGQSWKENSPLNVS

Row | pKi | SMILES
1 | 7.21 | CNC(=O)COc1cc(C(=N)N)ccc1CNC(=O)c1cc(Cl)cc(Cl)c1 [Example 18.2, N-(4-carbamimidoyl-2-methylcarbamoylmethoxy-benzyl)-3,5-dichloro-benzamide hydrochloride]
2 | 7.09 | CCOC(=O)CNc1cc(C(=N)N)ccc1CNC(=O)c1cccc(C)c1 [Example 24.1, {5-carbamimidoyl-2-[(3-methyl-benzoylamino)-methyl]-phenylamino}-acetic acid ethyl ester hydrochloride]
3 | 7.29 | Cc1cc(C(=O)NCc2ccc(C(=N)N)cc2OCCNC(=O)c2ccccc2F)ccc1F [Example 42.2, N-{4-carbamimidoyl-2-[2-(2-fluoro-benzoylamino)-ethoxy]-benzyl}-4-fluoro-3-methyl-benzamide hydrochloride]
